In EPA's ToxRefDB 2:

What was measured:
rat [1] = conditions: Multigenerational reproductive toxicity study, wistar, Oral, Feed, dose end: 4 generation
rat [2] = conditions: Prenatal developmental toxicity study, sprague dawley, Oral, Gavage/Intubation, dose end: 19 GD
rat [3] = conditions: Prenatal developmental toxicity study, wistar, Oral, Gavage/Intubation, dose end: 15 GD
rabbit [4] = conditions: Prenatal developmental toxicity study, new zealand white, Oral, Gavage/Intubation, dose end: 18 GD
rabbit [5] = conditions: Prenatal developmental toxicity study, new zealand white, Dermal, Topical, dose end: 19 GD
rabbit [6] = conditions: Prenatal developmental toxicity study, other, Oral, Gavage/Intubation, dose end: 18 GD
[7] = group: offspring, developmental / developmental malformation / bone / absent + developmental / developmental malformation / bone / incomplete ossification + …
[8] = group: offspring, systemic / in life observation / body weight / offspring (pup) weight gain
[9] = group: parental, systemic / in life observation / body weight / body weight gain
[10] = group: reproductive, reproductive / reproductive performance / fertility / fertility + reproductive / reproductive performance / pregnancy / pregnancy
[11] = group: reproductive, reproductive / reproductive performance / fertility / fertility + reproductive / reproductive performance / pregnancy / pregnancy + …
[12] = group: developmental, developmental / developmental malformation / bone / bipartite ossification + developmental / developmental malformation / bone / …
[13] = group: maternal, systemic / in life observation / body weight / body weight + systemic / in life observation / clinical signs / abnormal gait + systemic / in…
[14] = group: developmental, developmental / developmental malformation / general / [other]
[15] = group: maternal, systemic / in life observation / body weight / body weight + systemic / in life observation / food consumption / food consumption
[16] = group: developmental, developmental / developmental malformation / bone / [other] + developmental / developmental malformation / bone / curled + developmental / …
[17] = group: maternal, systemic / in life observation / body weight / body weight gain
[18] = group: maternal, systemic / in life observation / body weight / body weight gain + reproductive / reproductive performance / aborted / aborted + reproductive…
[19] = group: developmental, developmental / developmental malformation / innominate artery / [other]
[20] = group: developmental, systemic / in life observation / body weight / fetal weight
[21] = group: maternal, systemic / in life observation / body weight / body weight + systemic / in life observation / body weight / body weight gain + reproductive…
[22] = group: maternal, systemic / in life observation / body weight / body weight + systemic / in life observation / body weight / body weight gain + systemic / in…

Q: `CC(O)CCO` (configuration not stated) [1,3-Butanediol] was tested. Which LOAEL (rat [1]; [7]) did it give?
A: > 12000 mg/kg/day

Q: What about the NOAEL (rat [1]; [7]) of the same molecule?
A: ≥ 12000 mg/kg/day

Q: And the LEL (rat [1]; [8])?
A: 2500 mg/kg/day

Q: What about the NEL (rat [1]; [8]) of the same molecule?
A: < 2500 mg/kg/day

Q: What about the LEL (rat [1]; [9]) of the same molecule?
A: 2500 mg/kg/day

Q: And the LOAEL (rat [1]; [9])?
A: > 12000 mg/kg/day

Q: What about the NEL (rat [1]; [9]) of the same molecule?
A: < 2500 mg/kg/day

Q: What about the NOAEL (rat [1]; [9]) of the same molecule?
A: ≥ 12000 mg/kg/day

Q: What about the LEL (rat [1]; [10]) of the same molecule?
A: 2500 mg/kg/day

Q: And the NEL (rat [1]; [10])?
A: < 2500 mg/kg/day

Q: And the LOAEL (rat [1]; [11])?
A: > 12000 mg/kg/day

Q: What about the NOAEL (rat [1]; [11]) of the same molecule?
A: ≥ 12000 mg/kg/day

Q: `OC(CCl)CCl` [1,3-Dichloro-2-propanol] was tested. Which LEL (rat [2]; [12]) did it give?
A: 90 mg/kg/day

Q: What about the LOAEL (rat [2]; [12]) of the same molecule?
A: > 90 mg/kg/day

Q: And the NEL (rat [2]; [12])?
A: 30 mg/kg/day

Q: And the NOAEL (rat [2]; [12])?
A: ≥ 90 mg/kg/day

Q: What about the LOAEL (rat [2]; [13]) of the same molecule?
A: > 90 mg/kg/day

Q: What about the NEL (rat [2]; [13]) of the same molecule?
A: 10 mg/kg/day

Q: And the NOAEL (rat [2]; [13])?
A: ≥ 90 mg/kg/day

Q: What about the LEL (rat [2]; group: maternal, systemic / in life observation / clinical signs / motor activity + systemic / in life observation / food consumption / food consumption + …) of the same molecule?
A: 30 mg/kg/day

Q: With `OCC#CCO` [2-Butyne-1,4-diol] as the molecule, how does the LEL (rat [3]; [14]) read?
A: 80 mg/kg/day

Q: What about the LOAEL (rat [3]; [14]) of the same molecule?
A: > 80 mg/kg/day

Q: And the NEL (rat [3]; [14])?
A: 40 mg/kg/day

Q: And the NOAEL (rat [3]; [14])?
A: ≥ 80 mg/kg/day

Q: And the LEL (rat [3]; [15])?
A: 80 mg/kg/day

Q: What about the LOAEL (rat [3]; [15]) of the same molecule?
A: > 80 mg/kg/day

Q: What about the NEL (rat [3]; [15]) of the same molecule?
A: 40 mg/kg/day

Q: What about the NOAEL (rat [3]; [15]) of the same molecule?
A: ≥ 80 mg/kg/day

Q: Which LEL (rabbit [4]; [16]) does the source give for `Nc1ncn[nH]1` [Amitrole] here?
A: 40 mg/kg/day

Q: And the LOAEL (rabbit [4]; [16])?
A: 40 mg/kg/day

Q: What about the NEL (rabbit [4]; [16]) of the same molecule?
A: 4 mg/kg/day

Q: What about the NOAEL (rabbit [4]; [16]) of the same molecule?
A: 4 mg/kg/day

Q: What about the LEL (rabbit [4]; [17]) of the same molecule?
A: 40 mg/kg/day

Q: And the LOAEL (rabbit [4]; [17])?
A: 40 mg/kg/day

Q: And the NEL (rabbit [4]; [18])?
A: 4 mg/kg/day

Q: And the NOAEL (rabbit [4]; [18])?
A: 4 mg/kg/day

Q: And the LEL (rabbit [5]; [19])?
A: 1000 mg/kg/day

Q: And the NEL (rabbit [5]; [19])?
A: < 1000 mg/kg/day

Q: What about the LOAEL (rabbit [5]; [20]) of the same molecule?
A: 2000 mg/kg/day

Q: What about the NOAEL (rabbit [5]; group: developmental, systemic / in life observation / body weight / fetal weight + developmental / developmental malformation / bone / absent + developmental / …) of the same molecule?
A: 1500 mg/kg/day

Q: What about the LOAEL (rabbit [5]; group: maternal, systemic / in life observation / body weight / body weight + systemic / in life observation / body weight / body weight gain) of the same molecule?
A: 2000 mg/kg/day

Q: What about the LEL (rabbit [5]; [21]) of the same molecule?
A: 2000 mg/kg/day

Q: What about the NEL (rabbit [5]; [21]) of the same molecule?
A: 1500 mg/kg/day

Q: And the NOAEL (rabbit [5]; [21])?
A: 1500 mg/kg/day

Q: And the LEL (rabbit [6]; [20])?
A: 80 mg/kg/day

Q: What about the LOAEL (rabbit [6]; [20]) of the same molecule?
A: 80 mg/kg/day

Q: And the NEL (rabbit [6]; [20])?
A: 20 mg/kg/day

Q: And the NOAEL (rabbit [6]; [20])?
A: 20 mg/kg/day

Q: And the LEL (rabbit [6]; [22])?
A: 80 mg/kg/day

Q: What about the LOAEL (rabbit [6]; [22]) of the same molecule?
A: 80 mg/kg/day

Q: And the NEL (rabbit [6]; [22])?
A: 20 mg/kg/day

Q: What about the NOAEL (rabbit [6]; [22]) of the same molecule?
A: 20 mg/kg/day
